Experiment in all cases: NCI anticancer screen, dose series, 48 h
Experiment [1] deals with SR leukemia.
For experiment [2], the system named is DU-145 prostate.
Experiment [3] deals with OVCAR-8 ovarian.
Experiment [4] has as its system SN12C renal.
Experiment [5] deals with SK-MEL-2 melanoma.
For experiment [6], the system named is NCI-H522 lung.
In experiment [7] the test system is MCF7 breast.
Experiment [8] concerns UACC-257 melanoma.
Experiment [9] deals with HOP-92 NSCLC.
In experiment [10] the test system is NCI-H460 lung.

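In this assay, cells in 96-well plates receive the compound at five concentrations for 48 hours. Endpoints are linearly interpolated between the surrounding concentrations. Abbreviation: GI50, concentration required for 50% inhibition of growth. TGI: concentration producing complete growth inhibition.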 A value given as a limit tells only on which side of the number the result lay.

For `O=C1Cc2cc(CCn3cncn3)c(Cl)cc2N1`, the GI50 in experiment [1] was 11.8 µM; in [2] it was greater than 100 µM; in experiment [3], 69.4 µM; in experiment [4] it was greater than 100 µM; in experiment [5], 12.4 µM; in [6] it was 5.29 µM. The GI50 in experiment [7] is 4.02 µM; in experiment [8] it was 7.14 µM; in [9], 3.02 µM; in experiment [10], 68.6 µM. Besides, the TGI in [1], in experiment [2], in experiment [3], in experiment [4], in experiment [5] and in [6] was greater than 100 µM each time. Further, the TGI in experiment [7], in experiment [8], in experiment [9] and in [10] was greater than 100 µM in each case.

Take `O=C(Nc1ccccc1)OC1OC(COC(=O)c2ccccc2)C(OC(=O)c2ccccc2)C1OS(=O)(=O)c1ccc([N+](=O)[O-])cc1` (centres undefined): the TGI in experiment [1], in experiment [2], in experiment [3], in [4], in [5] and in [6] was greater than 100 µM in each case. Besides, the TGI in experiment [7], in experiment [8], in [9] and in [10] was greater than 100 µM each time.

Consider `C#C[C@@]1(O)[C@@H](CO)O[C@@H](n2cc(C(F)(F)F)c3c(N)ncnc32)[C@@H]1O`, for which the GI50 in experiment [1] is 0.306 µM; in experiment [2], 0.433 µM; in [3], 0.243 µM; in [4], 0.658 µM; in [5], 0.913 µM; in experiment [6] it was 0.345 µM. For the same molecule, the GI50 is 0.0711 µM in experiment [7], 0.6 µM in [8], 1.24 µM in [9] and 0.536 µM in experiment [10]. For the same molecule, the TGI in [1] was 1.7 µM; in experiment [2], greater than 100 µM; in experiment [3] it was greater than 100 µM; in experiment [4] it was greater than 100 µM; in experiment [5], 2.85 µM; in [6], 1.98 µM. Moreover, the figures for the TGI in [9] and in experiment [10] were 7.46 µM and 10.6 µM, respectively.

On to `Clc1cccc(CNc2c3ccccc3nc3ccccc23)c1`, for which the GI50 in experiment [1] is 1.47 µM; in experiment [2] it was 2.57 µM; in [3], 2.41 µM; in [4], 2.36 µM; in experiment [5], 2 µM; in experiment [6], 1.88 µM. Also, the GI50 in experiment [7] was 1.62 µM; in [8], 1.92 µM; in experiment [9], 1.12 µM; in experiment [10], 1.95 µM. Besides, the TGI in experiment [1] came out at 4.55 µM; in [2], 7.17 µM; in experiment [3] it was 8.93 µM; in experiment [4], 11 µM; in experiment [5] it was 4.22 µM; in [6], 4.89 µM. The TGI in experiment [7] was found to be 3.53 µM; in [8] it was 4.25 µM; in experiment [9], 3.82 µM; in experiment [10], 4.2 µM.

Take `COc1cc([N+](=O)[O-])c(S(=O)(=O)O)cc1-n1nc(C(=O)Nc2ccccc2)n[n+]1-c1cc(S(=O)(=O)[O-])c([N+](=O)[O-])cc1OC`: the TGI in experiment [1], in [2], in experiment [3], in experiment [4], in [5] and in experiment [6] was greater than 100 µM each time. The TGI in experiment [7], in experiment [8], in experiment [9] and in experiment [10] was greater than 100 µM in each case.

With `COc1ccc(-c2cc(-c3ccc(Cl)cc3)nc(NCCCCNc3ccnc4cc(Cl)ccc34)n2)cc1`, the GI50 in [1] was 0.708 µM; in experiment [2] it was 2.25 µM; in experiment [3] it was 1.9 µM; in experiment [4], 1.5 µM; in [5], 20.3 µM; in experiment [6], 3.65 µM. Further, the GI50 in [7] is 1.82 µM; in experiment [8], 1.96 µM; in experiment [9], 1.67 µM; in experiment [10], 2.04 µM. Moreover, the TGI was greater than 100 µM in experiment [1]; 4.79 µM in [2]; 4.28 µM in experiment [3]; 3.18 µM in [4]; 52.8 µM in experiment [5]; 14.6 µM in experiment [6]. Besides, the TGI in experiment [7] was 3.73 µM; in experiment [8], 4.22 µM; in experiment [9], 18.3 µM; in experiment [10] it was 4.35 µM.

As for `COc1cc(-c2nc3ccccc3o2)cc(CN2CCCCC2)c1O`, the GI50 was 5.24 µM in experiment [1]; 1.82 µM in experiment [2]; 11.4 µM in [3]; 1.5 µM in experiment [4]; 4.58 µM in [5]; 3.26 µM in experiment [6]. In addition, the GI50 in [7] is 1.58 µM; in [8], 2.06 µM; in experiment [9] it was 27 µM; in experiment [10] it was 2.84 µM. In addition, the TGI in experiment [1] stood at 71.9 µM; in experiment [2], 3.33 µM; in experiment [3], 94.3 µM; in experiment [4], 4.25 µM; in experiment [5] it was 15.8 µM; in [6] it was 14.2 µM. In addition, the TGI in experiment [7] was 4.34 µM; in experiment [8] it was 5.51 µM; in experiment [9] it was greater than 100 µM; in experiment [10] it was 10.9 µM.

Take `O=C(/C=C/c1ccccn1)c1ccc(OCc2nnc(-c3ccc(Cl)cc3)o2)cc1`: the GI50 in experiment [1] was 0.291 µM; in [2], 1.62 µM; in [3] it was 2.48 µM; in [4], 2.41 µM; in experiment [5] it was 3.29 µM; in [6], 1.89 µM. Besides, the GI50 is 0.378 µM in experiment [7], 1.98 µM in [8], 2.35 µM in experiment [9] and 3.24 µM in [10]. Further, the TGI was 1.93 µM in experiment [1]; 3.02 µM in experiment [2]; 5.57 µM in [3]; 5.8 µM in experiment [4]; 8.61 µM in [5]; 3.94 µM in experiment [6]. Besides, the TGI amounted to 1.68 µM in experiment [7], 4.06 µM in experiment [8], 6.33 µM in experiment [9] and 11.1 µM in experiment [10].

Regarding `O=C(NCCOCCOCCOCCNC(=O)c1cc2c(o1)C(=O)c1ccccc1C2=O)NC12CC3CC(CC(C3)C1)C2`, the GI50 in [1] was 2.37 µM; in experiment [2], 0.628 µM; in experiment [3] it was 1.44 µM; in [4], 1.34 µM; in experiment [5], 2.15 µM; in [6], 1.78 µM. For the same molecule, the GI50 in experiment [7] was 1.16 µM; in experiment [8], 1.36 µM; in [9], 3.08 µM; in experiment [10], 1.19 µM. Moreover, the TGI amounted to 11.7 µM in [1]; 1.89 µM in experiment [2]; 8.34 µM in [3]; 2.71 µM in experiment [4]; 5.46 µM in [5]; 4.95 µM in [6]. The TGI in experiment [7] amounted to 3.22 µM; in experiment [8], 2.83 µM; in experiment [9] it was 10.7 µM; in [10], 2.93 µM.

On to `CN(C)Cc1ccc(NC(=O)c2cncc(C#Cc3cnc(N)c4ncccc34)c2)cc1F`, for which the GI50 in experiment [1] was 1.93 µM; in [2], 1.77 µM; in experiment [3] it was 2.31 µM; in experiment [4] it was 1.92 µM; in [5], 14 µM; in experiment [6] it was 17.2 µM. Also, the GI50 was 1.66 µM in experiment [7], 7.31 µM in experiment [8], 4.53 µM in [9] and 1.93 µM in experiment [10]. Also, the TGI in [1] turned out to be 5.93 µM; in experiment [2], 3.32 µM; in [3], 5.02 µM; in experiment [4], 3.56 µM; in experiment [5] it was 35.3 µM; in experiment [6], 53.9 µM. Besides, the TGI in experiment [7] turned out to be 3.45 µM; in [8], 26.7 µM; in experiment [9], 21.6 µM; in experiment [10] it was 3.63 µM.

On to `COc1ccc(C(=O)c2cc3c(N)c(C(=O)Nc4cccc(Br)c4C)sc3nc2C)cc1`, for which the GI50 was 0.0354 µM in experiment [1]; 0.194 µM in [2]; 0.205 µM in experiment [3]; 0.0844 µM in experiment [4]; 1.54 µM in [5]; 0.0418 µM in experiment [6]. The GI50 in [7] is 0.0396 µM; in [8], greater than 100 µM; in experiment [9], less than 0.0445 µM; in [10], 0.0962 µM. Besides, the TGI in [3], in experiment [4], in experiment [5], in [6], in [7] and in [8] was greater than 100 µM in each case. In experiment [9], this molecule had a TGI of 1.67 µM.

For `COc1ccc2c(O)c(/C=C3\N=Nc4ncccc43)oc2c1C[C@@H]1CCNC[C@H]1F`, the TGI in experiment [1] is 0.193 µM; in [2] it was 4.19 µM; in experiment [3], 1.6 µM; in experiment [4], 2.22 µM; in [5] it was 4.04 µM; in [6] it was 1.35 µM. Also, the TGI was determined as 1.09 µM in experiment [7], 9.46 µM in [8], 9.21 µM in experiment [9] and 2.05 µM in [10]. The GI50 is 0.809 µM in experiment [2]; 0.277 µM in experiment [3]; 0.458 µM in experiment [4]; 1.93 µM in [5]; 0.128 µM in [6]; 0.118 µM in experiment [7]. Besides, the GI50 in [8] was 2.82 µM; in [9], 4.7 µM; in experiment [10], 0.617 µM.

The values are drawn from PubChem BioAssay (NCI).
